Measured values reported in PubChem BioAssay (NCI).
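Growth conditions: 96-well plates. Treatment: test compound, 48 hours, 5 concentrations. Analysis: linear interpolation between bracketing concentrations; unreached endpoints set to highest concentration. At the TGI there is no net growth.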

Legend:
Experiment in all cases: growth of human tumour cells (NCI), 48 h
[1] = system: HOP-92 NSCLC
[2] = system: A549 NSCLC
[3] = system: SR leukemia
[4] = system: UO-31 renal
[5] = system: HOP-62 NSCLC
[6] = system: HCT-116 colon
[7] = system: SF-295 CNS
[8] = system: RPMI-8226 leukemia
[9] = system: MOLT-4 leukemia
[10] = system: CAKI-1 renal
[11] = system: MDA-MB-435
[12] = system: ACHN renal
[13] = system: BT-549 breast
[14] = system: UACC-62 melanoma
[15] = system: KM12 colon
[16] = system: NCI-H522 lung
[17] = system: HS 578T breast
[18] = system: SNB-19 CNS
[19] = system: SW-620 colon
[20] = system: A498 renal
[21] = system: HT29 colon
[22] = system: MALME-3M melanoma
[23] = system: MDA-N
[24] = system: UACC-257 melanoma
[25] = system: SN12C renal
[26] = system: EKVX NSCLC
[27] = system: NCI-H226 lung
[28] = system: NCI-H23 lung
[29] = system: COLO 205 colon
[30] = system: OVCAR-8 ovarian
[31] = system: PC-3 prostate
[32] = system: CCRF-CEM leukemia
[33] = system: SK-MEL-28 melanoma
[34] = system: SF-268 CNS
[35] = system: SK-MEL-5 melanoma
[36] = system: K-562 leukemia
[37] = system: LOX IMVI melanoma
[38] = system: IGROV1 ovarian
[39] = system: HCT-15 colon
[40] = system: U251 CNS
[41] = system: DU-145 prostate
[42] = system: OVCAR-4 ovarian
[43] = system: NCI/ADR-RES ovarian
[44] = system: HCC-2998 colon
[45] = system: OVCAR-3 ovarian
[46] = system: HL-60(TB) leukemia
[47] = system: M14 melanoma
[48] = system: MCF7 breast
[49] = system: SK-OV-3 ovarian
[50] = system: T-47D breast
[51] = system: MDA-MB-231 breast
[52] = system: NCI-H460 lung
[53] = system: SF-539 CNS
[54] = system: OVCAR-5 ovarian
[55] = system: SNB-75 CNS
[56] = system: TK-10 renal
[57] = system: SK-MEL-2 melanoma
[58] = system: DMS 273 small cell lung
[59] = system: DLD-1 colon
[60] = system: DMS 114 small cell lung
[61] = system: SNB-78 CNS
[62] = system: XF 498 CNS
[63] = system: 786-0 renal
[64] = system: M19-MEL melanoma

Question: `COc1ccc(C(=O)c2c(-c3ccccc3NC(=O)C(F)(F)F)[nH]c3ccccc23)cc1` was tested. Which TGI [1] did it give?
Answer: The TGI was 27.6 µM.

Question: What about the TGI [2] of the same compound?
Answer: The TGI was 20.2 µM.

Question: What about the TGI [3] of the same compound?
Answer: The TGI was 8.62 µM.

Question: What about the TGI [4] of the same compound?
Answer: Its TGI is 19.4 µM.

Question: What about the TGI [5] of the same compound?
Answer: Its TGI is 22.1 µM.

Question: What about the TGI [6] of the same compound?
Answer: The TGI was 25.5 µM.

Question: What about the TGI [7] of the same compound?
Answer: Its TGI is 25.5 µM.

Question: And the TGI [8]?
Answer: The TGI was 27.2 µM.

Question: And the TGI [9]?
Answer: The TGI was 10.6 µM.

Question: What about the TGI [10] of the same compound?
Answer: Its TGI is 28.6 µM.

Question: And the TGI [11]?
Answer: The TGI was 25.5 µM.

Question: And the TGI [12]?
Answer: Its TGI is 11.6 µM.

Question: What about the TGI [13] of the same compound?
Answer: Its TGI is 29 µM.

Question: What about the TGI [14] of the same compound?
Answer: Its TGI is 25.8 µM.

Question: And the TGI [15]?
Answer: Its TGI is 21.8 µM.

Question: And the TGI [16]?
Answer: The TGI was 22.8 µM.

Question: And the TGI [17]?
Answer: Its TGI is 46.9 µM.

Question: What about the TGI [18] of the same compound?
Answer: Its TGI is 21.6 µM.

Question: And the TGI [19]?
Answer: The TGI was 16.7 µM.

Question: And the TGI [20]?
Answer: The TGI was 4.7 µM.

Question: What about the TGI [21] of the same compound?
Answer: The TGI was 16.5 µM.

Question: What about the TGI [22] of the same compound?
Answer: Its TGI is 30.5 µM.

Question: And the TGI [23]?
Answer: The TGI was 29.3 µM.

Question: What about the TGI [24] of the same compound?
Answer: The TGI was 29.9 µM.

Question: And the TGI [25]?
Answer: The TGI was 28.3 µM.

Question: And the TGI [26]?
Answer: Its TGI is 24.4 µM.

Question: What about the TGI [27] of the same compound?
Answer: Its TGI is 37.9 µM.

Question: What about the TGI [28] of the same compound?
Answer: The TGI was 25.7 µM.

Question: What about the TGI [29] of the same compound?
Answer: Its TGI is 16.1 µM.

Question: And the TGI [30]?
Answer: The TGI was 23.5 µM.

Question: What about the TGI [31] of the same compound?
Answer: Its TGI is 17.3 µM.

Question: And the TGI [32]?
Answer: The TGI was 15.2 µM.

Question: What about the TGI [33] of the same compound?
Answer: Its TGI is 27.6 µM.

Question: And the TGI [34]?
Answer: The TGI was 28.7 µM.

Question: And the TGI [35]?
Answer: Its TGI is 22 µM.

Question: What about the TGI [36] of the same compound?
Answer: The TGI was 32.7 µM.

Question: And the TGI [37]?
Answer: The TGI was 16.1 µM.

Question: What about the TGI [38] of the same compound?
Answer: The TGI was 24.3 µM.

Question: What about the TGI [39] of the same compound?
Answer: Its TGI is 19.9 µM.

Question: What about the TGI [40] of the same compound?
Answer: The TGI was 7.17 µM.

Question: And the TGI [41]?
Answer: The TGI was 17 µM.

Question: What about the TGI [42] of the same compound?
Answer: Its TGI is 19.2 µM.

Question: What about the TGI [43] of the same compound?
Answer: Its TGI is 28.8 µM.

Question: What about the TGI [44] of the same compound?
Answer: Its TGI is 9.11 µM.

Question: What about the TGI [45] of the same compound?
Answer: The TGI was 8.67 µM.

Question: And the TGI [46]?
Answer: Its TGI is 13.6 µM.

Question: What about the TGI [47] of the same compound?
Answer: Its TGI is 32.6 µM.

Question: And the TGI [48]?
Answer: The TGI was 17.2 µM.

Question: What about the TGI [49] of the same compound?
Answer: The TGI was 32.7 µM.

Question: What about the TGI [50] of the same compound?
Answer: The TGI was 9.05 µM.

Question: And the TGI [51]?
Answer: Its TGI is 21.4 µM.

Question: What about the TGI [52] of the same compound?
Answer: The TGI was 16.4 µM.

Question: And the TGI [53]?
Answer: Its TGI is 4.41 µM.

Question: What about the TGI [54] of the same compound?
Answer: The TGI was 25.5 µM.

Question: And the TGI [55]?
Answer: Its TGI is 7.89 µM.

Question: And the TGI [56]?
Answer: The TGI was 24.9 µM.

Question: What about the TGI [57] of the same compound?
Answer: The TGI was 14.9 µM.

Question: Which results are given for `COc1cc(N)c2[nH]c3c(C)ccc(C)c3c2c1`?
Answer: TGI [2]: > 100 µM; TGI [3]: > 100 µM; TGI [4]: > 100 µM; TGI [5]: > 100 µM; TGI [58]: > 100 µM; TGI [6]: > 100 µM; TGI [7]: > 100 µM; TGI [8]: > 100 µM; TGI [9]: > 100 µM; TGI [10]: > 100 µM; TGI [12]: > 100 µM; TGI [59]: > 100 µM; TGI [15]: > 100 µM; TGI [60]: > 100 µM; TGI [16]: > 100 µM; TGI [18]: > 100 µM; TGI [19]: > 100 µM; TGI [61]: > 100 µM; TGI [21]: > 100 µM; TGI [22]: > 100 µM; TGI [24]: > 100 µM; TGI [25]: > 100 µM; TGI [26]: > 100 µM; TGI [27]: > 100 µM; TGI [29]: > 100 µM; TGI [30]: > 100 µM; TGI [32]: > 100 µM; TGI [33]: > 100 µM; TGI [34]: > 100 µM; TGI [35]: > 100 µM; TGI [36]: > 100 µM; TGI [37]: > 100 µM; TGI [39]: > 100 µM; TGI [42]: > 100 µM; TGI [62]: > 100 µM; TGI [44]: > 100 µM; TGI [45]: > 100 µM; TGI [46]: > 100 µM; TGI [63]: > 100 µM; TGI [47]: > 100 µM; TGI [52]: > 100 µM; TGI [53]: > 100 µM; TGI [54]: > 100 µM; TGI [64]: > 100 µM; TGI [55]: > 100 µM; TGI [56]: > 100 µM; TGI [57]: > 100 µM
